Measurements from patent US11377442B2, “Small molecule agonists and antagonists of NR2F6 activity” (ZANDER THERAPEUTICS, INC., priority 2016, dated 2022).
Like-named read-outs stand apart in the source and are kept apart here.

Columns and labels:
Format in all cases: cell-based
[1] = molecular target: T1, NR2F6 (Homo sapiens, UniProt P10588); test: NR2F6 agonist screening, Firefly signal cmpd/DMSO; parameters: Firefly NR2F6 full length, cmpd/DMSO (mean) / Firefly F4, cmpd/DMSO (mean): unit of the concentration uncertain; settings: for Firefly, cmpd repeat 1 / Firefly, cmpd repeat 2: raw signal; for activity (in words): screening result
T1 construct: expressed in transfected cells; also transient transfection
T1 sequence (P10588 1-404): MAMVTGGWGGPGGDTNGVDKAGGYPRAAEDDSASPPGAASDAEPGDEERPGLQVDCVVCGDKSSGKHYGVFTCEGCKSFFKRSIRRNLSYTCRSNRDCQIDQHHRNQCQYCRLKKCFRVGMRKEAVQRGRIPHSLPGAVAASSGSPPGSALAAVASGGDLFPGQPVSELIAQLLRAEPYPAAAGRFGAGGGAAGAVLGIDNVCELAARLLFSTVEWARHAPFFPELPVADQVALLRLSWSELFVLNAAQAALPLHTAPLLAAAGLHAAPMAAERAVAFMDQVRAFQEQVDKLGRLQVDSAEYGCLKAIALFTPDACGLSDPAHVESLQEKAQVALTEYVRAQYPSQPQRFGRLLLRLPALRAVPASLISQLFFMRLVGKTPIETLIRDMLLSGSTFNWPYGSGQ

[2] = tested on: Renilla; test: Renilla signal in NR2F6 agonist screening, cmpd/DMSO; settings: for fold induction at 2 µM / fold induction at 10 µM / fold induction at 40 µM: Renilla, Table 14, read-out: Renilla F4, cmpd/DMSO (mean)
[3] = tested on: HEK293 pGL4; test: Firefly_pGL signal, cmpd/DMSO (pGL4 control cells); settings: Homo sapiens, HEK293, Table 14, read-out: Firefly pGL4, cmpd/DMSO (mean)
[4] = Concentration 2 (unit uncertain), F4
[5] = Concentration 2 (unit uncertain)
[6] = Concentration 10 (unit uncertain), F4
[7] = Concentration 10 (unit uncertain)
[8] = Concentration 40 (unit uncertain), F4
[9] = Concentration 40 (unit uncertain)

Firefly F4, cmpd/DMSO (mean) ([1]; Table 14, 2 uM)	Firefly F4, cmpd/DMSO (mean) ([1]; Table 14, 10 uM)	Firefly F4, cmpd/DMSO (mean) ([1]; Table 14, 40 uM)	Firefly, cmpd/DMSO (mean) [1]	Structure (SMILES)	fold induction at 2 µM ([2]; 2 uM)	fold induction at 10 µM ([2]; 10 uM)	fold induction at 40 µM ([2]; 40 uM)	fold induction at 2 µM [3]	fold induction at 10 µM [3]	fold induction at 40 µM [3]	also measured
1.2	1.0	1.0	–	Cc1ccc(NC(=O)c2noc3c2CCC3)cc1C [Compound C301]	1.1	0.7	1	2.4	1.6	1.1	–
1.2	0.9	0.9	–	Cc1ccc(NC(=O)c2noc3c2CCCC3)cc1C [Compound C302]	0.7	1.1	1	1.8	1.4	0.8	–
1.2	0.9	0.9	–	Cc1ccc(NC(=O)c2noc3c2CC(C(C)(C)C)CC3)cc1C (stereo not drawn) [Compound C303]	1	0.8	1	1.1	1.1	1.1	–
0.7	0.9	0.5	–	Cc1cc(C)n2nc(CNS(=O)(=O)c3ccc(F)cc3)nc2n1 [Compound E12]	0.7	0.7	1	0.9	0.8	1	–
–	–	–	–	Cc1ccc(S(=O)(=O)NCc2cn3cccc(C)c3n2)cc1C [Compound E41]	–	–	–	–	–	–	Firefly F4, cmpd/DMSO (mean) [1, 4]: 0.9; Firefly NR2F6 full length, cmpd/DMSO (mean) [1, 5]: 1.1; Firefly F4, cmpd/DMSO (mean) [1, 6]: 0.7; Firefly NR2F6 full length, cmpd/DMSO (mean) [1, 7]: 1.0; Firefly F4, cmpd/DMSO (mean) [1, 8]: 0.4; Firefly NR2F6 full length, cmpd/DMSO (mean) [1, 9]: 0.9
–	–	–	–	Cc1cccn2cc(CNS(=O)(=O)c3ccccc3F)nc12 [Compound E52]	–	–	–	–	–	–	Firefly F4, cmpd/DMSO (mean) [1, 4]: 0.7; Firefly NR2F6 full length, cmpd/DMSO (mean) [1, 5]: 1.0; Firefly F4, cmpd/DMSO (mean) [1, 6]: 0.9; Firefly NR2F6 full length, cmpd/DMSO (mean) [1, 7]: 1.3; Firefly F4, cmpd/DMSO (mean) [1, 8]: 0.7; Firefly NR2F6 full length, cmpd/DMSO (mean) [1, 9]: 1.4
1.0	1.1	1.4	–	Cc1ccc(NC(=O)c2noc3c2CC(C)CC3)cc1C (stereo not drawn) [Compound E53]	0.9	0.8	1.1	1.5	1.4	1.6	cytotox effect (decreasing both renilla and firefly activity) ([1]; NR2F6 agonist activity confirmation): strong cytotox effect; increase of firefly activity ([1]; at 10 uM): 6 times; firefly signal over DMSO level ([1]; at 10 uM and 50 uM): ~3 times
–	–	–	–	Cc1ccc(S(=O)(=O)N(Cc2nc3nc(C)c(S)c(C)n3n2)c2ccccc2)cc1 [Compound E57]	–	–	–	–	–	–	Firefly F4, cmpd/DMSO (mean) [1, 4]: 1.0; Firefly NR2F6 full length, cmpd/DMSO (mean) [1, 5]: 1.3; Firefly F4, cmpd/DMSO (mean) [1, 6]: 1.3; Firefly NR2F6 full length, cmpd/DMSO (mean) [1, 7]: 1.2; Firefly F4, cmpd/DMSO (mean) [1, 8]: 1.3; Firefly NR2F6 full length, cmpd/DMSO (mean) [1, 9]: 0.9
–	–	–	–	Cc1cc(C)nc(Sc2nnc(-c3ccc(C)c(S(=O)(=O)N4CCOCC4)c3)c3ccccc23)n1 [Compound F1]	–	–	–	–	–	–	Firefly, cmpd/DMSO (mean) ([1]; mean of repeats): 5.1; Firefly, cmpd repeat 1 [1]: 310; Firefly, cmpd repeat 2 [1]: 252; Firefly, cmpd/DMSO repeat 1 [1]: 5.6; Firefly, cmpd/DMSO repeat 2 [1]: 4.6
0.9	0.5	0.5	–	CCn1cc2c(n1)c(=O)n(Cc1ccccc1)c(=O)n2CC(=O)Nc1ccc(Br)cc1 [Compound L1]	0.8	0.8	0.7	0.8	0.4	0.8	–
–	–	–	–	COc1ccc(NC(=O)c2ccc3nc(-c4ccccc4)cn3c2)c(OC)c1 [Compound P1]	–	–	–	–	–	–	Firefly, cmpd/DMSO (mean) ([1]; mean of repeats): 3.5; Firefly, cmpd repeat 1 [1]: 236; Firefly, cmpd repeat 2 [1]: 166; Firefly, cmpd/DMSO repeat 1 [1]: 4.0; Firefly, cmpd/DMSO repeat 2 [1]: 3.0; activity (in words) [1]: good activity
0.8	1.6	0.6	–	CCOC(=O)c1cnc2c(C)cc(C)cc2c1NCCCN(C)C [Compound Z54]	0.7	0.3	0.2	1.1	1.9	0.8	activity (in words) [1]: particularly good activity
1.1	0.8	2.0	–	Cc1cc(C)n2nc(CNS(=O)(=O)c3c(F)c(F)c(F)c(F)c3F)nc2n1 [Compound Z55]	0.8	0.3	0.1	0.8	0.7	2.3	activity (in words) [1]: particularly good activity
1.2	2.1	0.5	–	Cc1cc(C)nc(Sc2nnc(-c3ccc(C)c(S(=O)(=O)N4CCOCC4)c3)c3ccccc23)n1 [Compound Z56]	0.9	0.3	0.2	1.2	8.9	1.2	activity (in words) [1]: particularly good activity
–	–	–	–	Cc1ccc(NC(=O)c2n[nH]c3c2CC(C)CC3)cc1C (stereo not drawn) [Compound Z96]	–	–	–	–	–	–	NR2F6_full (stable, clone F4), cmpd/DMSO Firefly ([1]; 2 uM): 2.9; NR2F6_full (transient), cmpd/DMSO Firefly ([1]; 2 uM): 2.4; NR2F6_full (stable, clone F4), cmpd/DMSO Firefly ([1]; 10 uM): 2.6; NR2F6_full (transient), cmpd/DMSO Firefly ([1]; 10 uM): 2.3; NR2F6_full (stable, clone F4), cmpd/DMSO Firefly ([1]; 40 uM): 2.6; NR2F6_full (transient), cmpd/DMSO Firefly ([1]; 40 uM): 2.4; NR2F6_full (stable, clone F4), cmpd/DMSO Renilla ([2]; 2 uM): 1.3; NR2F6_full (transient), cmpd/DMSO Renilla ([2]; 2 uM): 1.0; NR2F6_full (stable, clone F4), cmpd/DMSO Renilla ([2]; 10 uM): 1.2; NR2F6_full (transient), cmpd/DMSO Renilla ([2]; 10 uM): 1.0; NR2F6_full (stable, clone F4), cmpd/DMSO Renilla ([2]; 40 uM): 1.2; NR2F6_full (transient), cmpd/DMSO Renilla ([2]; 40 uM): 0.9
–	–	–	2.1	COc1ccc(-c2noc(Cn3ncccc3=O)n2)cc1 [Compound Z97]	–	–	–	–	–	–	NR2F6_full (stable, clone F4), cmpd/DMSO Firefly ([1]; 2 uM): 2.3; NR2F6_full (transient), cmpd/DMSO Firefly ([1]; 2 uM): 2.4; NR2F6_full (stable, clone F4), cmpd/DMSO Firefly ([1]; 10 uM): 2.2; NR2F6_full (transient), cmpd/DMSO Firefly ([1]; 10 uM): 2.8; NR2F6_full (stable, clone F4), cmpd/DMSO Firefly ([1]; 40 uM): 1.5; NR2F6_full (transient), cmpd/DMSO Firefly ([1]; 40 uM): 2.3; NR2F6_full (stable, clone F4), cmpd/DMSO Renilla ([2]; 2 uM): 1.1; NR2F6_full (transient), cmpd/DMSO Renilla ([2]; 2 uM): 1.0; NR2F6_full (stable, clone F4), cmpd/DMSO Renilla ([2]; 10 uM): 1.1; NR2F6_full (transient), cmpd/DMSO Renilla ([2]; 10 uM): 1.1; NR2F6_full (stable, clone F4), cmpd/DMSO Renilla ([2]; 40 uM): 1.2; NR2F6_full (transient), cmpd/DMSO Renilla ([2]; 40 uM): 1.1
–	–	–	1.0	CC(=O)Nc1ccc(Cl)c2nonc12 [Compound Z113]	–	–	–	–	–	–	Firefly, cmpd/DMSO (mean) ([1]; Concentration 2): 1.3; F4, cmpd/DMSO (mean) ([1]; Concentration 2, F4): 1.2; Firefly, cmpd/DMSO (mean) ([1]; Concentration 10): 1.1; F4, cmpd/DMSO (mean) ([1]; Concentration 10, F4): 1.5; Firefly, cmpd/DMSO (mean) ([1]; Concentration 40): 0.9; F4, cmpd/DMSO (mean) ([1]; Concentration 40, F4): 1.2
–	–	–	1.1	COc1ccccc1-c1noc(Cn2nccc(Cl)c2=O)n1 [Compound Z134]	–	–	–	–	–	–	–
–	–	–	1.0	COc1ccccc1-c1noc(Cn2ncc(Cl)cc2=O)n1 [Compound Z135]	–	–	–	–	–	–	–
–	–	–	1.5	COc1cccc(-c2noc(Cn3ncc(C)c(C)c3=O)n2)c1 [Compound Z139]	–	–	–	–	–	–	–
–	–	–	1.2	COc1ccc(-c2noc(Cn3ncc(C)c(C)c3=O)n2)cc1 [Compound Z140]	–	–	–	–	–	–	–
–	–	–	1.8	COc1ccc(-c2noc(Cn3nccc(Cl)c3=O)n2)cc1 [Compound Z141]	–	–	–	–	–	–	–
–	–	–	1.1	COc1ccc(-c2noc(Cn3ncc(Cl)cc3=O)n2)cc1 [Compound Z142]	–	–	–	–	–	–	–
–	–	–	1.5	COc1ccccc1-c1noc(COc2nccc(C)n2)n1 [Compound Z149]	–	–	–	–	–	–	–
–	–	–	1.0	COc1ccccc1-c1noc(Cn2ncc(C)cc2=O)n1 [Compound Z150]	–	–	–	–	–	–	–
–	–	–	1.1	COc1ccccc1-c1noc(Cn2nccc(C)c2=O)n1 [Compound Z151]	–	–	–	–	–	–	–
–	–	–	1.6	COc1ccc(-c2noc(Cn3ncc(C)cc3=O)n2)cc1 [Compound Z152]	–	–	–	–	–	–	–
–	–	–	2.0	COc1ccc(-c2noc(Cn3nccc(C)c3=O)n2)cc1 [Compound Z153]	–	–	–	–	–	–	–
